Like-named read-outs stand apart in the source and are kept apart here.
Legend:
[1] = Stability of solvent with storage; type: physicochemical
[2] = Stability of vitamin D in vehicle; type: physicochemical; details: result in words; only cells marked # are direct experimental observation
Excerpt: The liquid has minimal sensory effects i.e. it has minimal smell, taste, or texture i.e. no oily feel. The liquid is biologically natural in the context of breast-feeding, and is safe for infant consumption. The liquid per se is not subject to rancidity or oxidation over the shelf-life of the composition. […] One drop of each liquid was applied onto a nipple to determine whether it would adhere well enough so that no portion of it would drip off in a timeframe of 10 seconds. The results of these experimental observations are presented in Table 1 along with further considerations regarding the parameters desired for this invention.

Row | Compound | Stability of solvent with storage [1] | Stability of vitamin D in vehicle [2] | Stability of solvent with storage ([1]; direct experimental observation)
1 | CC(=O)Oc1c(C)c(C)c2c(c1C)CCC(C)(CCC[C@H](C)CCC[C@H](C)CCCC(C)C)O2 (stereo partly shown) [Eitamin E acetate oil] | Stable | – | –
2 | CCO [Ethanol] | – | Solvent | Evaporates
3 | O [Water] | Stable | – | –
4 | Canola oil | Oxidizes/ | – | –
5 | Medium-chain triglyceride | Stable | – | –
6 | Sesame oil | Oxidizes/ | – | –

Source: patent US9066958B2 (priority 2006, dated 2015)
